Assay results: patent US8202987B2, “Method of obtaining conformational polymorph of sucrose” (National Central University, priority 2007, dated 2012)

Format: physicochemical
Protocol: Then an anti-solvent method is used at 60° C. to add methanol into the saturated sucrose solution for obtaining the new sucrose through re-crystallization. The new sucrose obtained has a melting point at 150° C., which is lower then 190° C. for the original sucrose. […] Therefore, the present invention contributes to sugar industry, drug industry and food industry.
Conclusively, a novel conformational polymorph of sucrose is obtained according to the present invention.

| Structure (SMILES) | solubility | solubility relative to the original sucrose | stability relative to the original sucrose |
| --- | --- | --- | --- |
| OC[C@H]1O[C@@](CO)(O[C@H]2O[C@H](CO)[C@@H](O)[C@H](O)[C@H]2O)[C@@H](O)[C@@H]1O [sucrose] | 2873 milligrams sucrose per milliliter water | – | – |
| OC[C@H]1O[C@@](CO)(O[C@H]2O[C@H](CO)[C@@H](O)[C@H](O)[C@H]2O)[C@@H](O)[C@@H]1O [new sucrose, sucrose] | – | lower solubility than the original sucrose | higher stability than the original sucrose |
